Patent publication EP0617288B1, “Long emission wavelength chemiluminescent compounds and their use in test assays” (Novartis AG, priority 1993, dated 1994)

Columns and labels:
[1] = Light emission spectra by Fast Spectral Scanning System (FSSS); type: physicochemical; conditions: for emission spectrum peak: figure legends FIGS. 2A-2E, 3A-3J; for Emission Max: in 0.5 ml acetonitrile, Flashing Reagent #1 and #2, maximum could vary by 0-4 nm between determinations; for Range: spectral region with signal intensity of above 5% of peak height
Protocol: The light emission spectra of LBAC's and the reference acridinium esters were determined by a Fast Spectral Scanning System (FSSS) of Photo Research (a division of Kollmorgen Corp) of Burbank, CA, U.S.A. The experiment was carried out in a dark room. Each sample was dissolved in HPLC grade acetonitrile at the concentration of 1 mg/ml or higher and diluted with the same solvent to obtain the sample solution in the concentration specified. A typical determination utilized 10 to 100 ug of each compound, with the exception of the angular benz[a]acridinium ester (2 mg), separately or mixed together in 0.5 ml acetonitrile contained in 13 x 100 mm borosilicate test tube. The tube was placed on a tube rack raised to a proper height. The FSSS optical head was placed in front of the tube at close distance and with its lens focused on the liquid in the tube. The sample solution was first treated with 0.35 ml of the Flashing Reagent #1 (Ciba Corning Diagnostics) containing 0.1 N HNO3 and 0.1% H2O2. […] The light which was generated instantaneously following the addition of the Reagent #2 was recorded by FSSS for 4 seconds except for 2-MeO-LEAE-Imidate which was recorded for 30 seconds starting from split second before the Reagent #2 was added.
Recorded emission spectra are shown in FIGS. 2A-2E, 3A-3J, and 4A-4D. FIGS. 2A-2E and 3A-3J show individual emission spectra of chemiluminescent compounds including an acridinium ring system and compounds including a benzacridinium ring system. […] The major portions of the original constituting spectra which remained unchanged were indeed non-overlapping. These important physical characteristics fulfill the prerequisite for two or more subclasses of chemiluminescent compounds to be utilized in test assays for detecting and/or quantitating at least two substances in a test sample, and particularly to multianalyte clinical diagnostic assays.

[2] = Kinetic study on light emission (time course up to 10 seconds); type: physicochemical; conditions: normalized to 10 seconds
Protocol: A time course study over a period of up to 10 seconds was conducted to determine these percentages, by flashing the compounds and normalizing all the signals collected for different lengths of time to that of 10 seconds.

Molecule	emission spectrum peak [1]	Emission Max [1]	Range [1]	Percent signal released over different lengths of time ([2]; 0.5 s) [%]	Percent signal released over different lengths of time ([2]; 1.0 s) [%]	Percent signal released over different lengths of time ([2]; 2.0 s) [%]	Percent signal released over different lengths of time ([2]; 4.0 s) [%]	Percent signal released over different lengths of time ([2]; 6.0 s) [%]	Percent signal released over different lengths of time ([2]; 10.0 s) [%]	difference of the emission maxima ([1]; versus acridinium esters)
COc1ccc2c(c1)c(C(=O)Oc1c(C)cc(C(=O)OCc3ccccc3)cc1C)c1cc3ccccc3cc1[n+]2C [2-MeO-LEAE-Bz, (4-Benzyloxycarbonyl-2,6-dimethyl)phenyl 2-Methoxy-5-methyl-benz[b]acridinium-12-carboxylate Fluorosulfonate]	≈ 550 nm	550 nm	510-700 nm	16	42	65	83	92	100	–
COc1ccc2c(c1)c(C(=O)Oc1c(C)cc(C(=O)ON3C(=O)CCC3=O)cc1C)c1cc3ccccc3cc1[n+]2CCS(=O)(=O)[O-] [2-MeO-NSE-LEAE-NHS, (2,6-Dimethyl-4-N-succinimidyloxycarbonyl)phenyl 2-Methoxy-5-(2-sulfoethyl)-benz[b]acridinium-12-carboxylate]	≈ 546 nm	546 nm	500-700 nm	22	58	79	90	96	100	–
Cc1cc(C(=O)ON2C(=O)CCC2=O)cc(C)c1OC(=O)c1c2cc(OCC[N+](C)(C)C)ccc2[n+](C)c2cc3ccccc3cc12 [2-QAE-LEAE-NHS, (2,6-Dimethyl-4-succinimidyloxycarbonyl)phenyl 5-Methyl-2-(trimethylammonium)ethoxy-benz[b]acridinium-12-carboxylate Difluorosulfonate]	≈ 550 nm	550 nm	510-700 nm	9	37	59	76	88	100	–
CCOc1ccc2c(C(=O)Oc3c(C)cc(C(=O)OCc4ccccc4)cc3C)c3cc4ccccc4cc3[n+](C)c2c1 [3-EtO-LEAE-Bz, (4-Benzyloxycarbonyl-2,6-dimethyl)phenyl 3-Ethoxy-5-methyl-benz[b]acridinium-12-carboxylate Fluorosulfonate]	≈ 508 nm	508 nm	470-660 nm	45	78	85	93	95	100	–
COc1ccc2c(C(=O)Oc3c(C)cc(C(=O)OCc4ccccc4)cc3C)c3ccccc3[n+](C)c2c1 [3-MeO-DMAE-Bz, (4-Benzyloxycarbonyl-2,6-dimethyl)phenyl 3-Methoxy-10-methyl-acridinium-9-carboxylate Fluorosulfonate, reference compound]	≈ 422 nm	422 nm	395-520 nm	26	49	57	70	80	100	–
Cc1cc(C(=O)OCc2ccccc2)cc(C)c1OC(=O)c1c2ccccc2[n+](C)c2ccc3ccccc3c12 [ABAC, (4-Benzyloxycarbonyl-2,6-dimethyl)phenyl 5-methyl-benz[a]acridinium-12-carboxylate methosulfate, reference compound]	≈ 440 nm	436-440 nm	410-530 nm	3	20	52	73	89	100	8-14 nm
CC(C)c1cc(C(=O)OCc2ccccc2)cc(C(C)C)c1OC(=O)c1c2ccccc2[n+](C)c2cc3ccccc3cc12 [DIP-LEAE-Bz, (4-Benzyloxycarbonyl-2,6-diisopropyl)phenyl 5-Methyl-benz[b]acridinium-12-carboxylate Fluorosulfonate]	≈ 520 nm	520 nm	485-670 nm	4	26	47	67	80	100	–
COc1ccc(N(C(=O)c2c3ccccc3[n+](C)c3cc4ccccc4cc23)S(=O)(=O)c2cccc(C(=O)OCc3ccccc3)c2)cc1 [LEAC-Bz, N-(4-Methoxyphenyl)-N-[3-(benzyloxycarbonyl)phenylsulfonyl] 5-Methyl-benz[b]acridinium-12-carboxamide Fluorosulfonate]	≈ 520 nm	520 nm	485-670 nm	73	82	93	98	102	100	–
Cc1cc(C(=O)OCc2ccccc2)cc(C)c1OC(=O)c1c2ccccc2[n+](C)c2cc3ccccc3cc12 [LEAE-Bz, (4-Benzyloxycarbonyl-2,6-dimethyl)phenyl 5-Methyl-benz[b]acridinium-12-carboxylate Fluorosulfonate]	≈ 520 nm	520-524 nm	490-670 nm	27	71	88	97	98	100	–
Cc1cc(C(=O)OCc2ccccc2)cc(C)c1OC(=O)c1c2ccccc2[n+](CCCS(=O)(=O)[O-])c2cc3ccccc3cc12 [NSP-LEAE-Bz, (4-Benzyloxycarbonyl-2,6-dimethyl)phenyl 5-(3-Sulfopropyl)-benz[b]acridinium-12-carboxylate]	≈ 516 nm	516 nm	482-655 nm	14	72	91	96	95	100	–
(4-Benzyloxycarbonyl-2,6-diisopropyl)phenyl 10-Methyl-acridinium-9-carboxylate Fluorosulfonate [DIPAE-Bz, reference compound]	≈ 428 nm	426 nm	405-520 nm	14	64	89	97	98	100	–
[2,6-Dimethyl-4-(2-methoxyiminoethyl)]phenyl 2-Methoxy-5-methyl-benz[b]acridinium-12-carboxylate Dichloride [2-MeO-LEAE-Imidate]	≈ 550 nm	550 nm	500-710 nm	6	23	40	59	76	100	–
